Data reported in PMC3572379, “Pharmacokinetic and pharmacodynamic effects of comedication of clopidogrel and dabigatran etexilate in healthy male volunteers” (European Journal of Clinical Pharmacology, 2012).
Like-named read-outs stand apart in the source and are kept apart here. Marks after values point to notes of the source that are not given here. Blank lines part the entries; values can stand above or below the molecule they belong to.

Columns and labels:
[1] = Capillary bleeding time (Surgicutt device); format: in vivo, healthy male subjects; settings: for maximum capillary bleeding time (CBT): part 2
Experimental: The bleeding time was assessed by single measurements on the forearm using the Surgicutt® Bleeding Time Device (Product Number SUB50, International Technidyne, Edison, NJ, USA). Using a Surgicutt device, a standardized incision of 5 mm length and 1 mm depth was made in the skin. Every 30 s, the blood flow was wicked away cautiously with filter paper, so that the platelet plug remained intact, until the bleeding stopped. Normal bleeding time was under 8 min. For the CBT individual listings including the baseline value, the maximum value of the post-dose measurements, and the corresponding time of the maximum value were provided.

[2] = Safety and tolerability assessment; format: in vivo, healthy male subjects
[3] = tested on: blood coagulation parameters (aPTT, ECT, TT); test: Blood coagulation parameters aPTT, ECT and TT (anti-factor IIa); format: in vivo, healthy male subjects
Experimental: The secondary endpoints included other PK parameters and the effects of clopidogrel on the PD of dabigatran assessed by ECT, aPTT, TT (including maximum effect ratio, ERmax) as well as the CBT.
Calibration curves for clopidogrel and SR26334 covered concentration ranges of 0.01–10 ng/mL and 0.02–20 μg/mL, respectively, with an inaccuracy generally below 4% and imprecision below 9%. For blood coagulation parameters aPTT, ECT, and TT (PD analyses), ∼3 mL of blood were collected in sodium citrate monovettes at the time points indicated for PK analyses. The blood samples were centrifuged, frozen, and stored at −20°C or below. The aPTT, ECT, and TT parameters were analyzed on an MC10PLUS coagulometer using validated methods by BiochemA, Riegel, Germany. aPTT was measured using a kit from Roche Diagnostics (Mannheim, Germany) according to manufacturer’s instructions, and the ECT assay utilized ecarin from Pentapharm (Basel, Switzerland). Thrombin inhibition (TT), anti-factor IIa, was measured by the Hemoclot Thrombin Inhibitors Assay® (Hemoclot® TT #CK002K, HYPHEN BioMed, Neuville-sur-Oise, France) according to the manufacturer’s instructions. The Hemoclot kit was used for the quantitative measurement of direct thrombin inhibitors in plasma, with a clotting method based on the inhibition of a constant and defined concentration of thrombin.
AUEC and ERmax of aPTT, ECT, and TT as well as CBT, and safety and tolerability were assessed descriptively as secondary parameters.

[4] = cited from earlier work
[5] = tested on: ADP-induced platelet aggregation; test: ADP-induced inhibition of platelet aggregation (light transmission aggregometry in citrated PRP); format: in vivo, healthy male subjects; settings: for Emax: Homo sapiens, Platelet
Experimental: The primary endpoints for PD were area under the effect curve of ADP-induced inhibition of platelet aggregation (IPA) at steady state of clopidogrel over one dosing interval from 0–24 h after dosing (AUECIPA,τ,ss); maximum percentage change compared with baseline in ADP-induced platelet aggregation at steady state of clopidogrel (Emax,IPA,ss); AUEC from 0 to 24 h (AUECIPA,0–24) after the loading dose of clopidogrel 600 mg; and the maximum percentage change compared with baseline in ADP-induced platelet aggregation from 0 to 24 h (Emax,IPA,0–24) after the loading dose of clopidogrel 600 mg.
The following PD parameters were also evaluated: • For clopidogrel, ADP-induced IPA was determined at predefined time points. • Capillary bleeding times were assessed (part 2 and part 3 of the study) before clopidogrel administration, 2, 4, and 12 h after clopidogrel administration, and following administration of dabigatran etexilate alone.
For platelet aggregation testing, ∼9 mL of blood was collected into a 10 mL monovette containing citrate to yield a final concentration of 10.6 mM. Platelet-rich plasma (PRP) was prepared by centrifugation and removed from the red-cell sediment. Approximately 0.5 mL platelet-poor plasma (PPP) was prepared from PRP by further centrifugation. Inhibition of platelet aggregation was performed by light transmission aggregometry in citrated PRP, using an 8-channel platelet aggregation profiler (PAP 8) aggregometer (möLab, Germany). The PRP (0% light transmission) and PPP (100% light transmission) served as reference. After baseline adjustment, ADP in a final concentration of 20 μM was added and aggregation recorded for 6 min. Maximum aggregation (%) within the first 6 min after addition of ADP was determined.

P-gp = settings: cited from earlier work
[6] = Plasma pharmacokinetics (HPLC-MS/MS) in open-label drug–drug interaction trial
Experimental: The treatment phase was divided into three separate parts, each with a different set of subjects. Part 1 (pilot study) was an open-label, multiple-dose (for dabigatran etexilate) and single-dose (for clopidogrel), fixed-sequence study. A single dose of clopidogrel 300 mg was given in addition to dabigatran etexilate 150 mg bid in steady state (Table 1). Part 2 (main study) was a randomized, open-label, multiple-dose, crossover study, with three periods of up to 5 days separated by washout periods of at least 14 days. The test treatment consisted of a clopidogrel 300 mg loading dose on day 1, followed by a 75 mg dose on day 2, then clopidogrel 75 mg qd in combination with dabigatran etexilate 150 mg bid on days 3–5 (Table 1). Part 3 (main study) was an open-label, multiple-dose (for dabigatran etexilate) and single-dose (for clopidogrel), fixed-sequence study. A single dose of clopidogrel 600 mg was given alone or in addition to dabigatran 150 mg bid at steady state (Table 1).
Although there are no reported interactions of food with dabigatran etexilate or clopidogrel, the morning medication was administered with about 240 mL of water following an overnight fast of at least 10 h, and no food was allowed until 4 h after drug administration. According to the twice-daily regimen dabigatran etexilate was similarly administered again 12 h later. Subjects were not allowed to lie down during the 2 h following drug administration, and water was limited for 1 h before and after drug administration. On dosing days a light non-standardized breakfast was given 1 h after morning drug administration. On profile days, no food was given until 4 h after administration. No concomitant therapy was allowed during the study, except for prophylactic thyroid hormone replacement and for symptomatic therapy of adverse events (AEs) in need of treatment.
For PK parameter evaluations, blood samples were taken for the determination of plasma concentrations of free, nonconjugated dabigatran, total dabigatran (after alkaline cleavage of conjugates), and the prodrug dabigatran etexilate, and of clopidogrel and SR26334.
Blood samples were taken before and at specified intervals up to 24 h after the morning clopidogrel dose, and before and up to 24 h after the morning and evening dabigatran etexilate dose. Timings of PK/PD sampling are shown in Supplementary Table 1.
Blood samples (∼2.7 mL for dabigatran and ∼4.0 mL for clopidogrel) were collected into tubes containing potassium ethylenediaminetetraacetic acid for PK analysis. Samples were centrifuged, and the resulting plasma samples were separated and stored at −70°C or below.
Plasma concentrations of free, nonconjugated dabigatran; total dabigatran (sum of free and conjugated dabigatran measured after alkaline cleavage of conjugates); the prodrug dabigatran etexilate; clopidogrel; and SR26334 were determined by validated high-performance liquid chromatography tandem mass spectrometry (HPLC-MS/MS) at AAI Pharma Deutschland (Neu-Ulm, Germany). The calibration curves for free and total dabigatran covered a range from 1.00 to 400 ng/mL plasma in undiluted samples. […] Maximum imprecision and inaccuracy for quality control samples at concentrations of 3, 30, and 320 ng/mL were 6.62 and +5.86%, respectively. For the prodrug, maximum imprecision and inaccuracy were 6.63 and +2.83%, respectively.
Calibration curves for clopidogrel and SR26334 covered concentration ranges of 0.01–10 ng/mL and 0.02–20 μg/mL, respectively, with an inaccuracy generally below 4% and imprecision below 9%. For blood coagulation parameters aPTT, ECT, and TT (PD analyses), ∼3 mL of blood were collected in sodium citrate monovettes at the time points indicated for PK analyses. The blood samples were centrifuged, frozen, and stored at −20°C or below.

[7] = cited from earlier work; remark: listed apart in the source
[8] = part 2, clopidogrel 75 mg qd + DE 150 mg bid vs clopidogrel 75 mg qd
[9] = part 3, clopidogrel 600 mg + DE 150 mg bid vs clopidogrel 600 mg
[10] = part 3, reference: clopidogrel 600 mg single dose, n 12
[11] = male, human, in vivo, po, 75 mg
[12] = male, human, in vivo, po, 600 mg
[13] = part 2, reference: clopidogrel 75 mg qd alone, n=23
[14] = part 2, test: clopidogrel 75 mg qd + DE 150 mg bid, n=21, clopidogrel metabolite
[15] = part 3, DE 150 mg bid + clopidogrel 600 mg vs clopidogrel 600 mg

SMILES: COC(=O)[C@H](c1ccccc1Cl)N1CCc2sccc2C1 [Clopidogrel, clopidogrel]
- maximum capillary bleeding time (CBT) [1]: prolonged
- AEs considered related to the study drugs ([2]; one subject each, parts 2 and 3): hematoma
- effect on dabigatran PK/PD relationship (TT, ECT, aPTT vs plasma concentration) ([3]; part 2, DE given alone or in combination with clopidogrel): No effect
- bleeding time, overall least square means [4]: 1.96 times baseline
- Emax ([5]; part 1, after single dose clopidogrel 300 mg, data not shown, read-out: maximum inhibition of ADP-dependent platelet aggregation (Emax)): ~50%
- Emax ([5]; part 2, reference: clopidogrel 75 mg qd, n 23, read-out: Emax, ss, mean (maximum percentage change in ADP-induced platelet aggregation)): 58.8%
- Emax ([5]; part 2, test: clopidogrel 75 mg qd + DE 150 mg bid, n 21, read-out: Emax, ss, mean (maximum percentage change in ADP-induced platelet aggregation)): 55.1%
- Emax ([5]; part 3, reference: clopidogrel 600 mg single dose, n 12, read-out: Emax, mean (maximum percentage change in ADP-induced platelet aggregation)): ~60%
- Emax ([5]; part 3, test: clopidogrel 600 mg + DE 150 mg bid, n 11, read-out: Emax, mean (maximum percentage change in ADP-induced platelet aggregation)): 66.8%
- AUECIPA, τ,ss difference test – reference [5, 8]: −39.7 %·h
- AUECIPA, τ,ss difference test – reference, relative [5, 8]: −8.0%
- AUECIPA, τ,ss, mean ([5]; part 2, reference: clopidogrel 75 mg qd, n 21): 496 %·h
- AUECIPA, τ,ss, mean ([5]; part 2, test: clopidogrel 75 mg qd + DE 150 mg bid, n 21): 456 %·h
- AUEC0–24h difference test – reference [5, 9]: −84.6 %·h
- AUEC0–24h difference test – reference, relative [5, 9]: −6.7%
- AUEC0–24h of IPA, mean [5, 10]: 1264 %·h
- Emax, mean (maximum percentage change in ADP-induced platelet aggregation) [5, 10]: 66.0%
- AUEC0–24h of IPA, mean ([5]; part 3, reference: clopidogrel 600 mg single dose, n 12, listed as clopidogrel): 1,264 %·h
- AUEC0–24h of IPA, mean ([5]; part 3, test: clopidogrel 600 mg + DE 150 mg bid, n 11): 1179 %·h
- AUEC0–24h of IPA, mean ([5]; part 3, test: clopidogrel 600 mg + DE 150 mg bid, n 11, listed as clopidogrel): 1,179 %·h
- substrate of P-gp (P-gp): substrate of P-gp
- AUCτ,ss, gMean [6, 11]: 1400^b pg·h/mL
- Cmax,ss, gMean [6, 11]: 0.625 ng/mL
- AUC0-24, gMean [6, 12]: 10.574 ng·h/mL
- CL/Fss, gMean [6, 12]: 911000 mL/min
- Cmax, gMean [6, 12]: 4.013 ng/mL

SMILES: CCOC(=O)CN[C@@H](C(=O)N1CC[C@H]1C(=O)NCc1ccc(/C(N)=N\O)cc1)C1CCCCC1 [ximelagatran]
- further prolongation of CBT ([4]; phase I trial, in combination with acetylsalicylic acid (ASA) compared with ASA alone): about 40%

SMILES: CCCCCCOC(=O)NC(=N)c1ccc(NCc2nc3cc(C(=O)N(CCC(=O)OCC)c4ccccn4)ccc3n2C)cc1 [dabigatran etexilate]
- CBT on coadministration compared with clopidogrel alone ([1]; part 3, DE 150 mg bid with clopidogrel 600 mg vs single dose clopidogrel 600 mg alone): did not increase
- overall safety ([2]; given alone or in combination with clopidogrel): did not seem to cause any safety issues
- increase in gMean AUECτ,ss of aPTT ([3]; part 1, DE 150 mg bid steady state with single dose clopidogrel 300 mg vs DE alone): about 30%
- AUEC τ,ss and ERmax,ss of TT, ECT and aPTT after concomitant administration ([3]; part 2, clopidogrel 75 mg qd (300 mg loading dose) + DE 150 mg bid): not altered
- change in AUECτ,ss of aPTT ([3]; part 3, DE 150 mg bid with single dose clopidogrel 600 mg vs DE alone): approximately 36.5%
- dabigatran-related effect on TT, ECT and aPTT when clopidogrel coadministered ([3]; part 3, single dose clopidogrel 600 mg coadministered with DE 150 mg bid): slightly increased
- effect of coadministration on maximum ADP-dependent platelet aggregation achieved after clopidogrel ([5]; DE 150 mg coadministered, after single dose clopidogrel 300 mg): did not alter
- substrate for P-gp (P-gp): is a substrate for P-gp

- increase in bioavailability (AUCτ,ss) ([6]; male, human, in vivo): 32%
SMILES: [H]/N=C(/N)c1ccc(NCc2nc3cc(C(=O)N(CCC(=O)O)c4ccccn4)ccc3n2C)cc1 [dabigatran]
- maximum capillary bleeding time (CBT) [1]: did not prolong
- effect on coagulation parameters (aPTT, ECT, anti-factor IIa) when clopidogrel added ([3]; part 1, single dose clopidogrel 300 mg added to steady-state DE 150 mg bid): slightly increased
- substrate for P-gp (P-gp): not
- glucuronide conjugates as share of total dabigatran in plasma [7]: about 20%
- half-life ([7]; multiple-dose administration): 14 to 17 h
- half-life ([7]; single-dose administration): 8 to 10 h

- AUC0–24 ([6]; part 1, clopidogrel 300 mg single dose with DE 150 mg bid): 35,400 pg h/mL
- AUCτ,ss ratio test/reference, gMean [6, 8]: 110%
- Cmax,ss ratio test/reference, gMean [6, 8]: 103%
- AUCτ,ss, gMean [6, 13]: 8008 ng·h/mL
- Cmax,ss, gMean [6, 13]: 2689 ng/mL
- AUCτ,ss, gMean [6, 14]: 8807 ng·h/mL
- Cmax,ss, gMean [6, 14]: 2760 ng/mL
- AUC0-24 ratio test/reference, gMean [6, 15]: 97.8%
- Cmax ratio test/reference, gMean [6, 15]: 85.7%
- AUC0-24, gMean ([6]; part 3, reference: clopidogrel 600 mg alone, n=12): 84.3 ng·h/mL
- AUC0-24, gMean ([6]; part 3, test: DE 150 mg bid + single dose clopidogrel 600 mg): 82.5 ng·h/mL
SMILES: O=C(O)[C@H](c1ccccc1Cl)N1CCc2sccc2C1 [SR26334]

SMILES: O=C(NC[C@H]1CN(c2ccc(N3CCOCC3=O)cc2)C(=O)O1)c1ccc(Cl)s1 [rivaroxaban]
- bleeding time, overall least square means [4]: 1.13 times baseline
